Tests used:
Assay type in all cases: cell-based
[1] = test system: human iPS cells (TkDN4-M cell line); assay: Cell aggregation assay: suspension (swirling) culture of human iPS cells, phase contrast microscopy; details: Day 1 of culture; for cell aggregation suppression (aggregate formation observed by microscopy): compared to only Y-27632
Procedure: TkDN4-M cell lines (Institute of Medical Science, The University of Tokyo) were used as human iPS cells. Human iPS cells were seeded on cell culture dishes coated with Vitronectin (Thermo Fisher Scientific Co., Ltd.) and subjected to a maintenance culture using Essential 8™ (Thermo Fisher Scientific Co., Ltd.) as the culture medium. Accutase (Thermo Fisher Scientific Co., Ltd.) was used as a cell detachment agent during passage. In addition, when the cells were seeded, Y-27632 (Wako Pure Chemical Industries, Ltd.) at a concentration of 10 μM was added to a culture medium. The culture medium was changed every day. For experiments, human iPS cells (the number of passage was 50 or less) were used.
The resulting cells were suspended in Essential 8™ culture medium comprising a final concentration of 5 mg/mL of BSA (Wako Pure Chemical Industries, Ltd.) and 10 μM of Y-27632 (Wako Pure Chemical Industries, Ltd.), and a portion thereof was stained with trypan blue and the number of cells was counted. The cell suspension was prepared so as to contain 2×10^5 cells per mL. […] Then the cells were seeded at a ratio of 1.3 mL/well in a 12-well plate for suspension culture (Sumitomo Bakelite Co., Ltd.). The cell-seeded plate was subjected to a swirling culture on a rotary shaker (OPTIMA, Inc.) at a speed of 90 rpm along the horizontal plane to draw a circle with a swirling width (diameter) of 25 mm, and cells were cultured in suspension under a condition at 5% CO2 and 37° C. At the next day after the start of culture (Day 1 of culture), images were obtained by phase contrast microscopy. A control test was conducted using a cell suspension prepared under the same condition as above except that Y-27632 and TRAP-6 were not added.
(§1) A cell suspension was prepared in the same manner as in Example 2, and separately, the cell aggregation suppressor was adjusted so that the final concentration of TRAP-6 (same as above) was 3.74 mg/mL (10 mM). Then the adjusted cell aggregation suppressor was added to the cell suspension so that the final concentration of the agonist of a thrombin receptor was 5 μM. Then the cells were seeded at a ratio of 4 mL/well in a 6-well plate for suspension culture (Sumitomo Bakelite Co., Ltd.). The cell-seeded plate was subjected to a swirling culture on a rotary shaker (OPTIMA, Inc.) at a speed of 75 rpm along the horizontal plane to draw a circle with a swirling width (diameter) of 25 mm, and cells were cultured in suspension under a condition at 5% CO2 and 37° C. After the next day of culture (Day 1 of culture), the culture medium was exchanged daily for fresh medium (Essential 8™ culture medium containing BSA (Wako Pure Chemical Industries, Ltd.) at a final concentration of 5 mg/mL), and the culture continued until Day 5 of culture. A control test was conducted using a cell suspension prepared under the same condition as described above except that TRAP-6 was not added. Images were obtained by phase contrast microscopy every day during culture. The concentration of glucose contained in the culture supernatant collected at the time of culture medium exchange was measured with biosensor BF-5iD (Prince Measuring Equipment Co., Ltd.) to calculate glucose consumption.
Cell suspensions were prepared in the same manner as in Example 2 using human iPS cells cultured with the protocol of Example 1, and instead of TRAP-6, a PAR-1 agonist (Proteinase Activated Receptor-1; PAR-1 agonist, ANASPEC, AS-62937, a C-terminal amidated peptide consisting of the amino acid sequence of TFLLRN (SEQ ID NO: 8)) was added so that a final concentration thereof was 32.8 μM or S1P (sphingosine-1-phosphate; Cayman, 62570) (positive control) was added so that the final concentration thereof was 0.8 μg/mL). Then, suspension culture and image acquisition were performed in the same manner as in Example 2.

[2] = test system: human iPS cells (TkDN4-M cell line); assay: Cell yield at Day 5 of suspension culture (trypan blue count); details: TRAP-6 5 μM on Day 1, then TRAP-6-free medium; seeded 8×10^5 cells/well
Procedure: as §1, with “After the next day of culture (Day 1 of culture), the culture medium was exchanged daily for fresh medium (Essential 8™ culture medium containing BSA (Wako Pure Chemical Industries, Ltd.) at a final concentration of 5 mg/mL), and the culture continued until Day 5 of culture. A control test was conducted using a cell suspension prepared under the same condition as described above except that TRAP-6 was not added. Images were obtained by phase contrast microscopy every day during culture.” left out
Cell yields were also measured at Day 5 of culture. […] After that, the number of cells was counted using a hemocytometer to determine the cell yield.

[3] = test system: human iPS cells (TkDN4-M cell line); assay: Size distribution of cell aggregates (width of widest portion in micrograph); details: TRAP-6 5 μM, Day 1 of culture
Procedure: as §1
For cells cultured in suspension in the presence of TRAP-6 according to Example 3, 210 cell aggregates in an image acquired at Day 1 of culture were observed and compared using a micrograph scale, the width of the widest portion (referred to as “ϕ”) of each cell aggregate was measured, then distribution thereof was examined, and the average±standard deviation was calculated.

[4] = test system: human iPS cells (TkDN4-M cell line); assay: Percentage of cells positive for undifferentiation markers (flow cytometry); details: Day 5 of culture
Procedure: as §1
In addition, at Day 5 of culture, cell aggregates were collected, dispersed with Accutase, and then suspended in Essential 8™ culture medium containing 5 mg/mL BSA. A portion of this cell suspension was stained with trypan blue and the number of cells was counted. After the above cell suspensions were centrifuged at 300 g for 3 minutes, the supernatant was then removed, and the cells were washed with PBS (phosphate buffered saline). Next, the cells were fixed with 4% paraformaldehyde (Wako Pure Chemical Industries, Ltd.) at room temperature for 20 minutes, then washed 3 times with PBS. After cells were resuspended with 300 μL of PBS, 3 mL of cold methanol was added while stirring with voltex, and permeabilized at −20° C. overnight or more. After 3 washes with 3% FBS (fetal bovine serum)/PBS, cells were resuspended with 3% FBS (fetal bovine serum)/PBS and blocked at room temperature for 30 minutes to 1 hour. Subsequently, the cells were stained with fluorescently labeled anti-SOX2 antibodies (Cat. No. 656110, BioLegend, Inc.) and fluorescently labeled anti-OCT4 antibodies (Cat. No. 653703, BioLegend, Inc.) and fluorescently labeled anti-Nanog antibodies (Cat. No. 674010, BioLegend, Inc.) at 4° C. for 30 minutes to 1 hour. […] The resulting cells were analyzed on FACSVerse. […]

[5] = test system: human iPS cells (TkDN4-M cell line); assay: Glucose consumption during suspension culture of human iPS cells; details: TRAP-6 5 μM on Day 1, then TRAP-6-free medium, Day 1 to Day 5, compared to TRAP-6 non-added condition
Procedure: as §1, with “A control test was conducted using a cell suspension prepared under the same condition as described above except that TRAP-6 was not added. Images were obtained by phase contrast microscopy every day during culture.” left out

[6] = TRAP-6 5 μM on Day 1, then TRAP-6-free medium

CCCCCCCCCCCCC/C=C/[C@@H](O)[C@@H](N)COP(=O)(O)O [S1P, sphingosine-1-phosphate]
cell aggregation suppression (aggregate formation observed by microscopy) ([1]; S1P 0.8 μg/mL (positive control) with Y-27632 10 μM): aggregation was suppressed and smaller aggregates were formed

C[C@@H](N)[C@H]1CC[C@H](C(=O)Nc2ccncc2)CC1 [Y-27632, 4-[(1R)-1-aminoethyl]-N-pyridin-4-ylcyclohexane-1-carboxamide]
aggregate formation observed by microscopy ([1]; Y-27632 10 μM alone, compared to control without Y-27632): aggregates were formed

Thrombin Receptor Activator for Peptide 6 [TRAP-6]
proliferation of seeded cells (cell yield) at Day 5 of culture [2]: 8.5 fold | percentage of cell aggregates with size (diameter) 40 μm or more and 300 μm or less [3]: 100% | percentage of cell aggregates with size (diameter) 60 μm or more and 300 μm or less [3]: 100% | percentage of cell aggregates with size (diameter) 80 μm or more and 300 μm or less [3]: 98.0% | percentage of cell aggregates with size (diameter) 100 μm or more and 300 μm or less [3]: 97.0% | average±standard deviation of cell aggregate size (diameter) ([3]; 210 cell aggregates): 167.8±35.3 μm | Number of cell aggregates by size ([3]; size range 40- μm): 0 | Percentage of cell aggregates by size ([3]; size range 40- μm): 0% | Number of cell aggregates by size ([3]; size range 60- μm): 4 | Percentage of cell aggregates by size ([3]; size range 60- μm): 2% | Number of cell aggregates by size ([3]; size range 80- μm): 2 | Percentage of cell aggregates by size ([3]; size range 80- μm): 1% | Number of cell aggregates by size ([3]; size range 100- μm): 5 | Percentage of cell aggregates by size ([3]; size range 100- μm): 2% | Number of cell aggregates by size ([3]; size range 120- μm): 25 | Percentage of cell aggregates by size ([3]; size range 120- μm): 12% | Number of cell aggregates by size ([3]; size range 140- μm): 58 | Percentage of cell aggregates by size ([3]; size range 140- μm): 28% | Number of cell aggregates by size ([3]; size range 160- μm): 56 | Percentage of cell aggregates by size ([3]; size range 160- μm): 27% | Number of cell aggregates by size ([3]; size range 180- μm): 31 | Percentage of cell aggregates by size ([3]; size range 180- μm): 15% | Number of cell aggregates by size ([3]; size range 200- μm): 13 | Percentage of cell aggregates by size ([3]; size range 200- μm): 6% | Number of cell aggregates by size ([3]; size range 220- μm): 8 | Percentage of cell aggregates by size ([3]; size range 220- μm): 4% | Number of cell aggregates by size ([3]; size range 240- μm): 3 | Percentage of cell aggregates by size ([3]; size range 240- μm): 1% | Number of cell aggregates by size ([3]; size range 260- μm): 4 | Percentage of cell aggregates by size ([3]; size range 260- μm): 2% | Number of cell aggregates by size ([3]; size range 280- μm): 1 | Percentage of cell aggregates by size ([3]; size range 280- μm): 0% | Number of cell aggregates by size ([3]; size range 300- μm): 0 | Percentage of cell aggregates by size ([3]; size range 300- μm): 0% | cell aggregation suppression (aggregate formation observed by microscopy) ([1]; TRAP-6 2 μM with Y-27632 10 μM): aggregation was suppressed and smaller aggregates were formed | aggregate size observed by microscopy ([1]; TRAP-6 5 μM with Y-27632 10 μM, 6-well plate, 75 rpm, compared to no TRAP-6): formation of smaller aggregates | cell aggregation suppression (aggregate formation observed by microscopy) ([1]; TRAP-6 10 μM with Y-27632 10 μM): aggregation was suppressed and smaller aggregates were formed | cell aggregation suppression (aggregate formation observed by microscopy) ([1]; TRAP-6 50 μM with Y-27632 10 μM): aggregation was suppressed and smaller aggregates were formed | percentage of cells positive for Nanog [4, 6]: ≥ 99% | percentage of cells positive for OCT4 [4, 6]: ≥ 98% | percentage of cells positive for SOX2 [4, 6]: ≥ 99% | undifferentiated state of human iPS cell aggregates ([4]; aggregates formed by addition of Y-27632 and TRAP-6 (5 μM)): remained undifferentiated | glucose consumption [5]: greater than that under the TRAP-6 non-added condition

— patent US20210062139A1, “CELL AGGREGATION SUPPRESSOR” (KANEKA CORPORATION, priority 2017, published 2021)
